Measurements reported in US8362263B2 (CJ Cheiljedang Corporation, priority 2006, dated 2013).
Structures can show the parent of a compound that is named as a salt.

What was measured:
[1] = Thermal stability in solid state, acceleration test at 60° C. (HPLC content); format: physicochemical
Experimental: (§1) <HPLC Analysis Condition> • Detector: UV absorbance (at 237 nm), • Column: Octadecyl silica gel C18 (4.6 mm×150 mm, 5[…]), • mobile phase: Potassium dihydrogen phosphate monobasic (0.03 M): Methanol=4:6 (by volume) • Flow rate: 1.5 ml/min.

[2] = Hygroscopicity test (K.F. water content under various humidity); format: physicochemical; conditions: 25° C.; for hygroscopicity (in words): various humidity conditions
[3] = Thermal stability in liquid state (distilled water, 25° C., dark, 4 weeks); format: physicochemical; conditions: dissolved in distilled water, 4 weeks at 25° C. in the dark
Experimental: as §1
The observation was made under the same conditions as in the HPLC analysis for evaluating the thermal stability of samples in a solid state.

[4] = Photostability test (ICH photostable chamber, 25° C., 4 weeks, HPLC content); format: physicochemical; conditions: 4 weeks at 25° C., light source
Experimental: as §1
An observation was made of content (HPLC) change under the same conditions as in the HPLC analysis for evaluating the thermal stability of samples.

[5] = physchem; conditions: 25 °C

content change in 60° C. acceleration test (in words) [1]	water content (K.F. moisture %) ([2]; 25% RH, Post 1 Week) [%]	water content (K.F. moisture %) ([2]; 60% RH, Post 1 Week) [%]	water content (K.F. moisture %) ([2]; 75% RH, Post 1 Week) [%]	water content (K.F. moisture %) ([2]; 95% RH, Post 1 Week) [%]	water content (K.F. moisture %) ([2]; Initial) [%]	hygroscopicity (in words) [2]	content change in liquid state (in words) [3]	appearance on light exposure [4]	solubility ([5]; pH 1.2, simulated gastric fluid) [mg/mL]	solubility ([5]; pH 4, aqueous buffer) [mg/mL]	solubility ([5]; pH 6.8, aqueous buffer) [mg/mL]	solubility ([5]; water) [mg/mL]	water content (K.F. moisture %) ([2]; 95% RH, Post 1 Week, listed as Example 2) [%]	Compound
little change in content	0.10	0.09	0.15	0.17	0.10	no hygroscopicity	no significant content changes							CCOC(=O)C1=C(COCCN)NC(C)=C(C(=O)OC)C1c1ccccc1Cl.O=C(O)CCCCC(=O)O (racemic) [C. Ex. 2, crystalline racemic amlodipine adipic acid salt anhydrous, reference compound]
little change in content	7.55	7.6	7.85	7.9	7.8	high in water content from the beginning	no significant content changes	turned yellow from white						CCOC(=O)C1=C(COCCN)NC(C)=C(C(=O)OC)[C@@H]1c1ccccc1Cl.CCOC(=O)C1=C(COCCN)NC(C)=C(C(=O)OC)[C@@H]1c1ccccc1Cl.O.O.O.O.O.O=S(=O)(O)c1ccccc1.O=S(=O)(O)c1ccccc1 [C. Ex. 1, S-(−)-amlodipine besylate 2.5 hydrate, reference compound]
little change in content	0.15	0.15	0.14	0.16	0.15	no hygroscopicity	no significant content changes		81.7	57.1	41.3	18.6		CCOC(=O)C1=C(COCCN)NC(C)=C(C(=O)OC)[C@@H]1c1ccccc1Cl [Ex. 1, crystalline S-(−)-amlodipine adipic acid salt anhydrous]
	0.8	0.9	1.3	1.62	0.7								1.62	CCOC(=O)C1=C(COCCN)NC(C)=C(C(=O)OC)[C@@H]1c1ccccc1Cl [Ex. 2, hygroscopic crystalline S-(−)-amlodipine adipic acid salt anhydrous]
